We go through 11 compounds from PubChem BioAssay (NCI).

Test systems include BT-549 breast; SF-295 CNS; NCI-H460 lung; UACC-257 melanoma; SF-268 CNS; SK-MEL-2 melanoma; PC-3 prostate; SF-539 CNS; T-47D breast; SNB-75 CNS.
Assay in all cases: NCI-60 cell line screen, 48 h

Structures are written as SMILES. Several values for one entry are separate records, joined by “and”; a condition that tells them apart may be missing. Identical values can stand only once.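 How tested: cells in 96-well plates exposed to compound for 48 hours at five concentrations. GI50 marks 50% less growth. Definition used: TGI = concentration required for complete inhibition of growth.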

Regarding `Cc1ccc2c(C(C[N+](=O)[O-])c3ccco3)c(-c3ccccc3)[nH]c2c1` (stereo unspecified), the GI50 in the assay on BT-549 breast is 48.8 µM; in the assay on SF-295 CNS it was 21.9 µM; in the assay with NCI-H460 lung, 26.7 µM; in the assay with UACC-257 melanoma, over 100 µM; with SF-268 CNS, over 100 µM; with SK-MEL-2 melanoma it was 38.2 µM. For the same compound, the GI50 in the assay on PC-3 prostate is 39.2 µM; with SF-539 CNS it was 30.6 µM; in the assay on T-47D breast it was 23 µM; in the assay on SNB-75 CNS, 4.75 µM. The TGI with BT-549 breast, with SF-295 CNS, in the assay on NCI-H460 lung, in the assay on UACC-257 melanoma, in the assay with SF-268 CNS and with SK-MEL-2 melanoma was over 100 µM in each case. The TGI in the assay with PC-3 prostate was over 100 µM; with SF-539 CNS, over 100 µM; with T-47D breast it was over 100 µM; with SNB-75 CNS, 71 µM.
Regarding `COc1ccc2c(c1)c(-c1cc(-c3cn(C)c4ccc(OC)cc34)[nH]n1)cn2C`, the GI50 in the assay on BT-549 breast, in the assay on SF-295 CNS, in the assay with NCI-H460 lung, in the assay on UACC-257 melanoma, with SF-268 CNS and in the assay with SK-MEL-2 melanoma was over 100 µM each time. Further, the GI50 in the assay on PC-3 prostate, with SF-539 CNS, in the assay on T-47D breast and in the assay with SNB-75 CNS was over 100 µM throughout. Besides, the TGI in the assay on BT-549 breast, in the assay with SF-295 CNS, in the assay on NCI-H460 lung, with UACC-257 melanoma, in the assay on SF-268 CNS and with SK-MEL-2 melanoma was over 100 µM each time. The TGI in the assay on PC-3 prostate, in the assay on SF-539 CNS, in the assay on T-47D breast and with SNB-75 CNS was over 100 µM throughout.
As to `Cc1nc2cc(Nc3nc(Nc4ccc(F)cc4)nc(-c4ccc(Cl)cc4)n3)ccc2n1Cc1ccccc1`, the GI50 in the assay on BT-549 breast is 6.14 µM; with SF-295 CNS, 4.81 µM; in the assay on NCI-H460 lung, 6.42 µM; in the assay on UACC-257 melanoma, 8.91 µM; in the assay on SF-268 CNS, 10.1 µM; in the assay on SK-MEL-2 melanoma it was 4.07 µM. The GI50 in the assay on PC-3 prostate is 3.69 µM; in the assay with SF-539 CNS, 11.3 µM; in the assay on T-47D breast, 2.44 µM; in the assay with SNB-75 CNS, 2.2 µM. The TGI with BT-549 breast is 39.8 µM; in the assay with SF-295 CNS it was 58 µM; in the assay on NCI-H460 lung, over 100 µM; in the assay on UACC-257 melanoma, over 100 µM; in the assay with SF-268 CNS it was 97.3 µM; in the assay on SK-MEL-2 melanoma, 41.1 µM. Also, the TGI is over 100 µM in the assay on PC-3 prostate, 28.7 µM with SF-539 CNS, 24.8 µM in the assay with T-47D breast and 10.5 µM in the assay with SNB-75 CNS.
As for `COc1cccc(C2CC(=O)Nc3cc4c(cc32)CCC4)c1OC` (stereo unspecified), the GI50 with BT-549 breast was 3.57 µM; in the assay with SF-295 CNS it was 2.83 µM; in the assay with NCI-H460 lung, 3.16 µM; in the assay with UACC-257 melanoma, 1.11 µM; with SF-268 CNS it was 5.34 µM; in the assay on SK-MEL-2 melanoma, 4.12 µM. Moreover, the GI50 in the assay with PC-3 prostate was 3.41 µM; with SF-539 CNS it was 3.03 µM; with T-47D breast, 5.52 µM; in the assay on SNB-75 CNS it was 2.31 µM. Also, the TGI in the assay with BT-549 breast amounted to 16.7 µM; with SF-295 CNS, 12.4 µM; in the assay on NCI-H460 lung, 12.3 µM; in the assay with UACC-257 melanoma, 11.2 µM; with SF-268 CNS it was 27.5 µM; in the assay on SK-MEL-2 melanoma, 17.3 µM. The TGI with PC-3 prostate came out at 47.3 µM; with SF-539 CNS it was 10.4 µM; in the assay on T-47D breast it was 52.3 µM; in the assay on SNB-75 CNS it was 11.9 µM.
Turning to `CCn1c(-c2nonc2N)nc2c(C#CC(C)(C)O)ncc(OC[C@@H]3CCCN3)c21`, the GI50 was 4.77 µM in the assay on BT-549 breast; 3.07 µM with SF-295 CNS; 4.51 µM in the assay with NCI-H460 lung; over 25 µM in the assay with UACC-257 melanoma; 7.84 µM in the assay on SF-268 CNS; 4.56 µM with SK-MEL-2 melanoma. For the same compound, the GI50 in the assay on PC-3 prostate was 4.39 µM; with SF-539 CNS it was 1.52 µM; in the assay with T-47D breast, 0.408 µM; in the assay on SNB-75 CNS, 0.942 µM. The TGI with BT-549 breast is over 22.8 µM; with SF-295 CNS it was over 25 µM; in the assay on NCI-H460 lung, over 22.6 µM; in the assay on UACC-257 melanoma, over 25 µM; in the assay on SF-268 CNS, over 25 µM; with SK-MEL-2 melanoma, 15 µM. In addition, the TGI in the assay with PC-3 prostate is over 25 µM; with SF-539 CNS, 15.8 µM; in the assay on T-47D breast, over 25 µM; in the assay with SNB-75 CNS, over 21.8 µM.
Take `Oc1cccc(-c2nc(N3CCOCC3)c3oc4ncccc4c3n2)c1`: the GI50 with BT-549 breast is 0.0515 µM and 0.036 µM; in the assay with SF-295 CNS it was 1.21 µM and 1.62 µM; with NCI-H460 lung, 0.359 µM and 0.419 µM; in the assay with UACC-257 melanoma, 0.593 µM and 0.421 µM; in the assay on SF-268 CNS it was 0.196 µM and 0.181 µM; with SK-MEL-2 melanoma, 0.147 µM and 0.295 µM. Also, the GI50 in the assay with PC-3 prostate is 0.0505 µM and 0.0462 µM; in the assay with SF-539 CNS it was 0.137 µM and 0.131 µM; in the assay with T-47D breast it was 0.212 µM and 0.192 µM; in the assay with SNB-75 CNS it was 0.0401 µM and < 0.0151 µM. Moreover, the TGI with BT-549 breast was 1.18 µM and 1.15 µM; with SF-295 CNS, 4.08 µM and 4.6 µM; in the assay on NCI-H460 lung, over 100 µM; in the assay on UACC-257 melanoma it was 3.39 µM and 3.79 µM; with SF-268 CNS it was > 100 µM and 19.9 µM; in the assay on SK-MEL-2 melanoma, 0.641 µM and 1.92 µM. The TGI in the assay with PC-3 prostate was over 100 µM; with SF-539 CNS it was 0.594 µM and 0.635 µM; with T-47D breast it was 1.34 µM and 0.814 µM; with SNB-75 CNS it was 0.311 µM and 0.114 µM.
With `CCOc1cccc(/C=N/NC(=O)Cc2ccc(Nc3ccnc(C(F)(F)F)c3)cc2)c1O`, the GI50 in the assay with BT-549 breast was 2.34 µM; in the assay on SF-295 CNS, 3.81 µM; with NCI-H460 lung it was 1.71 µM; with UACC-257 melanoma, 6.84 µM; in the assay with SF-268 CNS it was 1.27 µM; in the assay on SK-MEL-2 melanoma, 11.4 µM. Besides, the GI50 in the assay on PC-3 prostate is 1.88 µM; with SF-539 CNS, 2.03 µM; in the assay on T-47D breast, 2.43 µM; in the assay on SNB-75 CNS, 12.4 µM. Moreover, the TGI in the assay with BT-549 breast was 46.3 µM; with SF-295 CNS it was 43.2 µM; in the assay on NCI-H460 lung, 13.5 µM; with UACC-257 melanoma, over 100 µM; in the assay with SF-268 CNS, 32.4 µM; with SK-MEL-2 melanoma, 45 µM. The TGI stood at 21.6 µM in the assay on PC-3 prostate, 14.5 µM in the assay on SF-539 CNS, 26 µM in the assay with T-47D breast and 55 µM with SNB-75 CNS.
Turning to `O=C1c2c(O)ccc(O)c2C(=O)c2c(NCCNCCO)ccc(NCCNCCO)c21`, the TGI with BT-549 breast is 0.5 µM and 2.11 µM and 0.54 µM; with SF-295 CNS it was 0.321 µM and 0.878 µM and 0.526 µM; with NCI-H460 lung, 0.274 µM and 0.332 µM and 0.484 µM; in the assay with UACC-257 melanoma, 4.61 µM and 6.14 µM and 7.32 µM; with SF-268 CNS, 0.32 µM and 0.696 µM and 0.845 µM; in the assay with SK-MEL-2 melanoma, 0.657 µM and 0.6 µM and 0.926 µM. Further, the TGI was 1.29 µM and 1.45 µM and 1.55 µM in the assay on PC-3 prostate; 0.0705 µM and 0.699 µM and 0.244 µM in the assay on SF-539 CNS; 1.05 µM and 0.652 µM and 1.5 µM with T-47D breast; 0.122 µM and 0.541 µM and 0.218 µM with SNB-75 CNS. Besides, in the assay with UACC-257 melanoma, the GI50 was 0.82 µM.
In the case of `N#Cc1c(-c2ccc(Cl)cc2)csc1NC(=O)Nc1cccc(C(F)(F)F)c1`, the GI50 was 2.62 µM in the assay with BT-549 breast; 1.74 µM in the assay on SF-295 CNS; 2.76 µM in the assay on NCI-H460 lung; 2.53 µM with UACC-257 melanoma; 3.28 µM in the assay with SF-268 CNS; 2 µM in the assay on SK-MEL-2 melanoma. The GI50 with PC-3 prostate is 2.43 µM; with SF-539 CNS it was 2.06 µM; in the assay on T-47D breast it was 1.76 µM; in the assay with SNB-75 CNS, 2.01 µM. Moreover, the TGI in the assay on BT-549 breast turned out to be 9.23 µM; in the assay on SF-295 CNS, 4.21 µM; with NCI-H460 lung, 10.2 µM; with UACC-257 melanoma it was 6.74 µM; in the assay on SF-268 CNS, 14.7 µM; with SK-MEL-2 melanoma it was 4.57 µM. Moreover, the TGI in the assay on PC-3 prostate amounted to 11.5 µM; with SF-539 CNS, 4.85 µM; in the assay with T-47D breast, 7.79 µM; in the assay on SNB-75 CNS it was 12.7 µM.
As for `COc1ccc(-c2nn(-c3cccc(Cl)c3)cc2-c2cc(-c3cccs3)no2)cc1`, the GI50 with BT-549 breast is 4.99 µM; in the assay with SF-295 CNS it was 2.7 µM; in the assay on NCI-H460 lung it was 3.42 µM; with UACC-257 melanoma, 3.07 µM; with SF-268 CNS, 4.94 µM; with SK-MEL-2 melanoma it was 3.34 µM. Also, the GI50 in the assay with PC-3 prostate was 3.2 µM; in the assay with SF-539 CNS it was 7.47 µM; in the assay on T-47D breast, 3.86 µM; with SNB-75 CNS, 3.52 µM. In addition, the TGI in the assay with BT-549 breast worked out at 21.3 µM; in the assay on SF-295 CNS it was 13.2 µM; with NCI-H460 lung, 16.6 µM; in the assay with UACC-257 melanoma it was 15.1 µM; in the assay on SF-268 CNS it was 47.1 µM; in the assay on SK-MEL-2 melanoma it was 10.9 µM. For the same compound, the TGI with PC-3 prostate is 36.9 µM; with SF-539 CNS it was 36.6 µM; in the assay on T-47D breast, 25.3 µM; with SNB-75 CNS, 34.7 µM.
With `CCOC(=O)/N=c1\ssc(Cl)c1Cl`, the GI50 in the assay with BT-549 breast is 2.77 µM; in the assay with SF-295 CNS, 16.7 µM; with NCI-H460 lung, 21.3 µM; in the assay on UACC-257 melanoma, 15.3 µM; in the assay with SF-268 CNS, 17.4 µM; with SK-MEL-2 melanoma, 12.1 µM. In addition, the GI50 in the assay with PC-3 prostate is 15.8 µM; in the assay on SF-539 CNS, 2.87 µM; in the assay on T-47D breast it was 17.2 µM; in the assay on SNB-75 CNS, 30.6 µM. The TGI in the assay with BT-549 breast came to 7.21 µM; in the assay on SF-295 CNS, 33.2 µM; in the assay on NCI-H460 lung it was 54.3 µM; in the assay with UACC-257 melanoma it was 30.7 µM; with SF-268 CNS, 41.6 µM; in the assay on SK-MEL-2 melanoma, 60.4 µM. Besides, the TGI in the assay with PC-3 prostate came out at 36 µM; with SF-539 CNS, 8.97 µM; with T-47D breast, 42.6 µM; with SNB-75 CNS, 87.7 µM.
